Assay results from paper PMC5342526, “Identification of Bisindolylmaleimide IX as a potential agent to treat drug-resistant BCR-ABL positive leukemia” (Oncotarget, 2016).
Read-outs that look alike come from different tables or passages of the source.

What was measured:
[1] = tested on: K562, HL-60, MCF7, U251, AGS, MGC-803, U2OS and Saos-2 cells; format: cell-based
Description: The reference wavelength was 630 nm.
www.impactjournals.com/oncotarget/ Oncotarget, Supplementary Materials 2016 […]

p53 in primary MEFs = experiment: p53 protein level by western blot (screen)
Description: Cells were lysed in TNEN buffer (50 mM Tris, 150 mM NaCl, 5 mM EDTA, 0.5% NP-40, and 0.1% Triton X-100) supplemented with 1 mM NaF, Na2VO3, 1 mM PMSF, and 1 μg/ml of aprotonin, leupeptin, and pepstatin A. Protein concentrations were determined using a Bio-Rad assay. Proteins were resolved by SDS-PAGE and transferred to polyvinylidene difluoride membranes (Millipore).

K562 cells = experiment: Wst-1 cell survival assay; details: K562, Wst-1
Description: We then evaluated the cytotoxic effect of Bisindolylmaleimide IX in MEFs and HCT116 cells. Different doses of Bisindolylmaleimide IX were applied to the cell cultures and cell survival rates and IC50 were determined with Wst-1 assay.
To measure cell survival rates after Bisindolylmaleimide IX treatment, cells were plated at 1×10^4 in 96 well plates and cultured for overnight, which were then treated with Bisindolylmaleimide IX for 48 hrs. Cell proliferation reagent WST-1 (Roche) was added to each well and was further incubated for 4 hrs at 37°C. The absorbance was measured against a control using microplate reader at 440 nm. The reference wavelength was 630 nm.

γH2AX foci in MEFs = experiment: γH2AX DNA damage foci, immunofluorescent staining; format: cell-based, mouse; details: 2.5 μM, 4 hrs
Description: MEFs or HCT116 cells were cultured on cover slips while Baf3 cells were cultured on slides coated by 0.1mg/ml poly-L-lysine, washed with phosphate-buffered saline (PBS) twice, and then fixed in 4% paraformaldehyde (PFA), which were permeabilized with 0.1% Triton X in PBS for 30 minutes at room temperature. The primary antibodies were diluted in PBS with 1% BSA (1:200). The slides were blocked (1% BSA in PBS) for 60 minutes at room temperature, incubated with primary antibodies overnight at 4°C, and followed by secondary antibody incubation for 60 min at RT. The slides were then mounted and observed under confocal microscope (Leica, Germany). Antibodies against γH2AX were from Bethyl Corporation.

[2] = tested on: tumors derived from HCT116; experiment: HCT116 carcinoma xenograft in nude mice; format: in vivo, mouse; details: 2.5mg/kg for 7 days
Description: Male BALB/cASlac-nude mice (4-week-old) were purchased from Shanghai Slac Laboratory Animal C. LTD. The mice were kept in the SPF mouse facility for 1 week before being inoculated with HCT116 cells. HCT116 cells were harvested by trypsinization, counted and resuspended in PBS at the concentration of 5×10^7/ml. We injected subcutaneously 3×10^6 cells to BALB/cASlac nude mice's back. After 2 weeks, the mice were divided into 3 groups (6 mice per group) and were treated with 5-Iodotubercidin (Itu), Bisindolylmaleimide IX or solvent (PBS). The mice were weighed and the size of tumor measured. The length (L) and width (W) of the tumor were measured with a digital caliper and expressed as tumor volume (0.5L×W^2, mm^3).

[3] = tested on: B-Raf in BCR-ABL positive BaF3 cells; experiment: B-Raf phosphorylation, western blot; format: cell-based, murine
Description: Activation and expression of Erk, Mek1, and Raf were determined by western blot. B. Inhibition of Erk decreased the cell survival rates in BaF3 cells expressing BCR-ABL compared to control cells. […] C. […] N=3. Right panel: Western blot results showing that B-Raf was knocked down in these cells.

Structure (SMILES): CN[C@@H]1C[C@H]2O[C@@](C)([C@@H]1OC)n1c3ccccc3c3c4c(c5c6ccccc6n2c5c31)C(=O)NC4 [staurosporine]
- cytotoxic effects across cell lines (in words) ([1]; 24 hrs, Wst-1): strong cytotoxic effects in almost all these cell lines
- p53 protein up-regulation (p53 in primary MEFs): failed to up-regulate p53 in MEFs

Structure (SMILES): NCCNS(=O)(=O)c1cccc2cnccc12 [H-9]
- p53 protein up-regulation (p53 in primary MEFs): failed to up-regulate p53 in MEFs

Structure (SMILES): N#CC(=C(/N)Sc1ccccc1N)/C(C#N)=C(/N)Sc1ccccc1N [U0126]
- cell death rates in BCR-ABL expressing BaF3 cells versus control cells (BCR-ABL BaF3 cells; inhibition of Erk): increased cell death rates

Structure (SMILES): CC1CNCCN1S(=O)(=O)c1cccc2cnccc12 (stereo not drawn) [H-7]
- p53 protein up-regulation (p53 in primary MEFs): failed to up-regulate p53 in MEFs

Structure (SMILES): Cn1cc(C2=C(c3cn(C4CCN(Cc5ccccn5)CC4)c4ccccc34)C(=O)NC2=O)c2ccccc21 [Enzastaurin]
- cytotoxic effect (in words) (BCR-ABL BaF3 cells; BCR-ABL BaF3, 24 hrs, compared among bisindolylmaleimide derivatives): modest cytotoxic effect
- cytotoxicity (in words) (K562 cells): modest cytotoxic effect
- γH2AX foci formation (γH2AX foci in MEFs): minimal numbers of foci

Structure (SMILES): CCCCCCCCCCCCC/C=C/[C@@H](O)[C@@H](N)CO [Sphingosine]
- p53 protein up-regulation (p53 in primary MEFs): failed to up-regulate p53 in MEFs

Structure (SMILES): CN(C)CCCn1cc(C2=C(c3c[nH]c4ccccc34)C(=O)NC2=O)c2ccccc21 [Bisindolylmaleimide I]
- p53 protein up-regulation (p53 in primary MEFs): failed to up-regulate p53 in MEFs
- γH2AX foci formation (γH2AX foci in MEFs): minimal numbers of foci

Structure (SMILES): Nc1ncnc2c1c(I)cn2[C@@H]1O[C@H](CO)[C@@H](O)[C@H]1O [5-Iodotubercidin]
- p53 protein up-regulation (p53 in primary MEFs): up-regulate p53 at the protein levels
- tumor growth [2]: greatly inhibited tumor growth

Structure (SMILES): CC(=O)c1c(O)c(C)c(O)c(Cc2c(O)c3c(c(C(=O)/C=C/c4ccccc4)c2O)OC(C)(C)C=C3)c1O [Rottlerin]
- p53 protein up-regulation (p53 in primary MEFs): failed to up-regulate p53 in MEFs

Structure (SMILES): Cc1ccc(NC(=O)c2ccc(CN3CCN(C)CC3)cc2)cc1Nc1nccc(-c2cccnc2)n1 [Imatinib]
- cytotoxic effects across cell lines (in words) [1]: specificity to BCR-ABL positive cells

Structure (SMILES): COc1cc([C@@H]2c3cc4c(cc3[C@@H](O[C@@H]3O[C@@H]5CO[C@@H](c6cccs6)O[C@H]5[C@H](O)[C@H]3O)[C@H]3COC(=O)[C@H]23)OCO4)cc(OC)c1O [teniposide]
- survival of BCR-ABL positive BaF3 cells compared with control cells (BCR-ABL BaF3 cells; 24 hrs, Wst-1): increased survival
- phosphorylation of B-Raf [3]: did not affect the phosphorylation of B-Raf

Structure (SMILES): COCc1cc(O)c(O)c(O)c1-c1c(COC)cc(O)c(O)c1O [HBDDE]
- p53 protein up-regulation (p53 in primary MEFs): failed to up-regulate p53 in MEFs

Structure (SMILES): COc1cccc2c1C(=O)c1c(O)c3c(c(O)c1C2=O)C[C@@](O)(C(=O)CO)C[C@@H]3O[C@H]1C[C@H](N)[C@H](O)[C@H](C)O1 [doxorubicin]
- phosphorylation of B-Raf [3]: did not affect the phosphorylation of B-Raf

Structure (SMILES): Cc1cc(O)c2c(=O)c3c(O)cc(O)c4c5c(O)cc(O)c6c(=O)c7c(O)cc(C)c8c1c2c(c34)c(c78)c65 [Hypericin]
- p53 protein up-regulation (p53 in primary MEFs): failed to up-regulate p53 in MEFs

Structure (SMILES): CCCCCCCCCCCCCCCC(=O)OC(CC(=O)O)C[N+](C)(C)C.[Cl-] (racemic) [Palmitoyl-DL-carnitine Cl]
- p53 protein up-regulation (p53 in primary MEFs): failed to up-regulate p53 in MEFs
